Counter-ions that a name gives are not always drawn. Like-named read-outs stand apart in the source and are kept apart here.

Test [1] addresses human recombinant 5-HT2A receptor (Homo sapiens (Human), UniProt P28223). Kind of test: 5-HT2A receptor antagonism activity test (FLIPR Calcium 5 Assay Kit). The conditions noted are these: read-out: 5-HT2A receptor antagonism (IC50, mol/L).
Test [2] addresses human recombinant 5-HT1A receptor (Homo sapiens (Human), UniProt P08908). Kind of test: 5-HT1A receptor agonism activity test (inhibition of cAMP production, LANCE cAMP 384 Kit). The conditions noted are these: HEK293 cells expressing human recombinant 5-HT1A receptor; test concentration 0.1 nM-10000 nM; read-out: 5-HT1A receptor agonism (EC50, mol/L). It counts as cell-based. The text has this: Pharmacological Test 1) 5-HT1A Receptor Agonism Activity Test
Background: Changes in cAMP serve as a functional read-out for many G protein-coupled receptors.

Test [3] has as its target human recombinant D2 receptor (Homo sapiens (Human), UniProt P14416). Kind of test: D2 receptor antagonism activity test (inhibition of dopamine-induced decrease of cAMP production, LANCE cAMP 384 Kit). To be noted: read-out: D2 receptor antagonism (IC50, mol/L), HEK293 cells expressing human recombinant D2 receptor, 0.1 nM-10000 nM.
Setting [4] is: CHO-K1 cells expressing human recombinant 5-HT2A receptor, α-methyl-5-hydroxytryptamine 300 nM, 0.1 nM-10000 nM.

Chain of human recombinant D2 receptor (P14416 whole entry): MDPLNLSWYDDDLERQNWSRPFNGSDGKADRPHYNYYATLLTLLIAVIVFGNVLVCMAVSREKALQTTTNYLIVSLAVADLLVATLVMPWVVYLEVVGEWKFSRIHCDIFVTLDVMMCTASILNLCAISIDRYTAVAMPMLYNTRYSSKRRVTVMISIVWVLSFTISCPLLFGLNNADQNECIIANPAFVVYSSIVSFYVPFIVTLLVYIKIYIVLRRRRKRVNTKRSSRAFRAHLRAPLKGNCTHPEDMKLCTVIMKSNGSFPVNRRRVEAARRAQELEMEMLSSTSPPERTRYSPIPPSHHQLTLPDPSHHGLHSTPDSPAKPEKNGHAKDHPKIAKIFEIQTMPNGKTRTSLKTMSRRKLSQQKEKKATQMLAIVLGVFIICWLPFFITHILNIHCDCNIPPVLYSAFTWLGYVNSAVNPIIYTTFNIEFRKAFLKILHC
Chain of human recombinant 5-HT1A receptor (P08908 whole entry): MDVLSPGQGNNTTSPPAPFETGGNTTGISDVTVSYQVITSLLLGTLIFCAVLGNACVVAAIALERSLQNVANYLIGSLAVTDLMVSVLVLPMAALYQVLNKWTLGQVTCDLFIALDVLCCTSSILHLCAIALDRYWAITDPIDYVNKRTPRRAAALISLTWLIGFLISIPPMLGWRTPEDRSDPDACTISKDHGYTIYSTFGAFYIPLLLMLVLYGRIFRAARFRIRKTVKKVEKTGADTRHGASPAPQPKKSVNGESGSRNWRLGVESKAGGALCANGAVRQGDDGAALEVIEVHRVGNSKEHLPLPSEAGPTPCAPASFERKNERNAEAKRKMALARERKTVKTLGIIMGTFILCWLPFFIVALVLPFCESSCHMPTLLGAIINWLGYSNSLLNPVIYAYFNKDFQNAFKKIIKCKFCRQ
Chain of human recombinant 5-HT2A receptor (P28223 whole entry): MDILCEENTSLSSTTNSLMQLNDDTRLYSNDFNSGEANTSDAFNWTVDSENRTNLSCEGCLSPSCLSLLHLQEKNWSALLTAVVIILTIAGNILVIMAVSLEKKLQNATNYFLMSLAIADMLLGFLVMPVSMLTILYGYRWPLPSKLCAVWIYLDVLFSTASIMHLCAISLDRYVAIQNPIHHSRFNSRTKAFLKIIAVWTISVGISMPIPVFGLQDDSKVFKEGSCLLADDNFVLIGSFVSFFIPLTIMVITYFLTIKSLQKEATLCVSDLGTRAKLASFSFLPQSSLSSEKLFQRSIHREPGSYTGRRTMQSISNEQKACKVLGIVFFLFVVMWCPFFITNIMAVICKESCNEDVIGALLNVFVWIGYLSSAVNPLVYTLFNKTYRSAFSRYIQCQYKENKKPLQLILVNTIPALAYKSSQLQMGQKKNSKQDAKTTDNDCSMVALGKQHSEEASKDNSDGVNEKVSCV

Regarding `O=C1Cc2cc(CCN3CCN(c4cccc5c4CCS5)CC3)c(Cl)cc2N1` [Compound of example 1, 6-chloro-5-(2-(4-(2,3-dihydrobenzo[b]thiophen-4-yl)piperazin-1-yl)ethyl)indolin-2-one], the IC50 in test [1] (setting [4]) worked out at 227 nM; in test [3], 56.9 nM. For the same compound, the EC50 in test [2] was found to be 3.31 nM.
With `O=c1ccc2ccc(CCN3CCN(c4cccc5sccc45)CC3)cc2[nH]1` [Compound of example 9, 7-(2-(4-(benzo[b]thiophen-4-yl)piperazin-1-yl)ethyl)quinolin-2(1H)-one], the IC50 in test [1] came to 95.6 nM; in test [3] it was 7.06 nM. The EC50 in test [2] came to 0.972 nM.
Regarding `O=c1ccc2ccc(CCCCCN3CCN(c4cccc5sccc45)CC3)cc2[nH]1` [Compound of example 11, 7-(5-(4-(benzo[b]thiophen-4-yl)piperazin-1-yl)pentyl)quinolin-2(1H)-one], the IC50 in test [1] (setting [4]) stood at 209 nM. Also, the EC50 in test [2] was determined as 1.95 nM.
In the case of `Cc1nc2c(OCc3ccccc3)cccn2c(=O)c1CCN1CCN(c2cccc3sccc23)CC1` [Compound of example 17, 3-(2-(4-(benzo[b]thiophen-4-yl)piperazin-1-yl)ethyl)-9-(benzyloxy)-2-methyl-4H-pyrido[1,2-a]pyrimidin-4-one hydrochloride], the IC50 in test [1] (setting [4]) stood at 350 nM.
Take `O=C1CCc2cc(Cl)c(CCN3CCN(c4cccc5sccc45)CC3)cc2N1` [Compound of example 23, 7-(2-(4-(benzo[b]thiophen-4-yl)piperazin-1-yl)ethyl)-6-chloro-3,4-dihydroquinolin-2(1H)-one]: the IC50 was found to be 97.6 nM in test [1] (setting [4]) and 81.2 nM in test [3]. The EC50 in test [2] came out at 463 nM.
Take `Cc1nc2ccc(CCCCCN3CCN(c4cccc5sccc45)CC3)cc2c(=O)[nH]1` [Compound of example 24, 6-(5-(4-(benzo[b]thiophen-4-yl)piperazin-1-yl)pentyl)-2-methylquinazolin-4(3H)-one]: the values for the IC50 in test [1] (setting [4]) and in test [3] were 781 nM and 50.7 nM, respectively. The EC50 in test [2] worked out at 25.9 nM.
Turning to `O=c1ccc2ccc(CCN3CCN(c4cccc5c4CCS5)CC3)cc2[nH]1` [Compound of example 25, 7-(2-(4-(2,3-dihydrobenzo[b]thiophen-4-yl)piperazin-1-yl)ethyl)quinolin-2(1H)-one], the IC50 in test [1] turned out to be 77.9 nM; in test [3], 85.1 nM. Also, the EC50 in test [2] was found to be 0.824 nM.
Take `O=c1[nH]cnc2ccc(CCCCCN3CCN(c4cccc5sccc45)CC3)cc12` [Compound of example 34, 6-(5-(4-(benzo[b]thiophen-4-yl)piperazin-1-yl)pentyl)quinazolin-4(3H)-one hydrochloride]: the EC50 in test [2] turned out to be 54 nM. Besides, the IC50 in test [3] was 324 nM.
Take `O=c1[nH]c(CCN2CCN(c3cccc4sccc34)CC2)nc2ccccc12` [Compound of example 35, 2-(2-(4-(benzo[b]thiophen-4-yl)piperazin-1-yl)ethyl)quinazolin-4(3H)-one]: the IC50 in test [1] (setting [4]) amounted to 21.5 nM; in test [3], 216 nM. Besides, the EC50 in test [2] worked out at 41.9 nM.
Taken in the same sequence, the figures for `O=C1Cc2cc(CCN3CCC(c4cccc5sccc45)CC3)c(Cl)cc2N1` [Compound of example 37, 5-(2-(4-(benzo[b]thiophen-4-yl)piperidin-1-yl)ethyl)-6-chloroindolin-2-one] were 28.1 nM, 51.9 nM and 3.11 nM.
Take `O=C1Cc2cc(CCN3CCN(c4cncc5sccc45)CC3)c(Cl)cc2N1` [Compound of example 42, 6-chloro-5-(2-(4-(thieno[2,3-c]pyridin-4-yl)piperazin-1-yl)ethyl)indolin-2-one]: the IC50 came out at 115 nM in test [1] (setting [4]) and 270 nM in test [3]. Also, the EC50 in test [2] turned out to be 100 nM.
`O=c1ccc2ccc(CCN3CCN(c4cncc5sccc45)CC3)cc2[nH]1` [Compound of example 43, 7-(2-(4-(thieno[2,3-c]pyridin-4-yl)piperazin-1-yl)ethyl)quinolin-2(1H)-one]: the IC50 in test [1] (setting [4]) turned out to be 286 nM; in test [3] it was 241 nM. The EC50 in test [2] is 1.23 nM.
As for `c1ccc2[nH]c(CN3CCN(c4cccc5sccc45)CC3)nc2c1` [Compound of example 58, 2-((4-(benzo[b]thiophen-4-yl)piperazin-1-yl)methyl)-1H-benzo[d]imidazole], the values for the IC50 in test [1] (setting [4]) and in test [3] were 2170 nM and 101 nM, respectively. Moreover, in test [2], the EC50 worked out at 4.55 nM.
Taken in the same sequence, the figures for `O=C1COc2cc(F)c(CCN3CCN(c4cccc5sccc45)CC3)cc2N1` [Compound of example 66, 6-(2-(4-(benzo[b]thiophen-4-yl)piperazin-1-yl)ethyl)-7-fluoro-2H-benzo[b][1,4]oxazin-3(4H)-one] were 81.5 nM, 61.7 nM and 1.29 nM.
With `N#Cc1ccc2[nH]cc(CCCCN3CCN(c4cccc5sccc45)CC3)c2c1` [Compound of example 70, 3-(4-(4-(benzo[b]thiophen-4-yl)piperazin-1-yl)butyl)-1H-indole-5-carbonitrile], the IC50 turned out to be 332 nM in test [1] (setting [4]) and 79.7 nM in test [3]. For the same compound, the EC50 in test [2] worked out at 9.7 nM.
As to `O=C1Cc2cc(CCN3CCN(c4cc(F)cc5sccc45)CC3)ccc2N1` [Compound of example 84, 5-(2-(4-(6-fluorobenzo[b]thiophen-4-yl)piperazin-1-yl)ethyl)indolin-2-one], the IC50 in test [1] (setting [4]) was determined as 17.5 nM; in test [3], 10.9 nM. Further, the EC50 in test [2] was determined as 0.235 nM.
As to `Cn1c(=O)[nH]c2ccc(CCN3CCN(c4cccc5sccc45)CC3)cc21` [Compound of example 86, 6-(2-(4-(benzo[b]thiophen-4-yl)piperazin-1-yl)ethyl)-1-methyl-1H-benzo[d]imidazol-2(3H)-one], the IC50 in test [1] (setting [4]) turned out to be 93.3 nM; in test [3], 23.5 nM. For the same compound, in test [2], the EC50 is 21.6 nM.
`Cc1nc2n(c(=O)c1CCN1CCN(c3cc(F)cc4sccc34)CC1)CCCC2` [Compound of example 90, 3-(2-(4-(6-fluorobenzo[b]thiophen-4-yl)piperazin-1-yl)ethyl)-2-methyl-6,7,8,9-tetrahydro-4H-pyrido[1,2-a]pyrimidin-4-one]: the IC50 in test [1] (setting [4]) was 13.6 nM; in test [3], 10.4 nM. Further, in test [2], the EC50 is 27.7 nM.
On to `O=C1COc2ccc(CCN3CCC(c4cccc5sccc45)CC3)cc2N1` [Compound of example 97, 6-(2-(4-(benzo[b]thiophen-4-yl)piperidin-1-yl)ethyl)-2H-benzo[b][1,4]oxazin-3(4H)-one], for which the IC50 in test [1] (setting [4]) was found to be 173 nM; in test [3] it was 6.81 nM. Further, the EC50 in test [2] amounted to 0.223 nM.
Consider `O=C1CCc2cc(CCN3CCC(c4cccc5sccc45)CC3)ccc2N1` [Compound of example 98, 6-(2-(4-(benzo[b]thiophen-4-yl)piperidin-1-yl)ethyl)-3,4-dihydroquinolin-2(1H)-one], for which the IC50 worked out at 185 nM in test [1] (setting [4]) and 12.4 nM in test [3]. In test [2], the EC50 is 2.9 nM.
On to `O=C1Cc2cc(CCCCN3CCN(c4cccc5sc(F)cc45)CC3)ccc2N1` [Compound of example 101, 5-(4-(4-(2-fluorobenzo[b]thiophen-4-yl)piperazin-1-yl)butyl)indolin-2-one], for which the IC50 was determined as 759 nM in test [1] (setting [4]) and 1.84 nM in test [3]. Also, in test [2], the EC50 is 16.8 nM.
Regarding `O=C1CCc2cc(CCCCN3CCC(c4cccc5sccc45)CC3)ccc2N1` [Compound of example 104, 6-(4-(4-(benzo[b]thiophen-4-yl)piperidin-1-yl)butyl)-3,4-dihydroquinolin-2(1H)-one], the IC50 in test [1] (setting [4]) was 106 nM; in test [3], 98.8 nM. For the same compound, in test [2], the EC50 stood at 12.3 nM.
As to `COc1ccc2[nH]cc(CCN3CCN(c4cccc5sccc45)CC3)c2c1` [Compound of example 105, 3-(2-(4-(benzo[b]thiophen-4-yl)piperazin-1-yl)ethyl)-5-methoxy-1H-indole], in test [1], the IC50 came to 25.5 nM.
For `COc1ccc2[nH]cc(CCCN3CCN(c4cccc5sccc45)CC3)c2c1` [Compound of example 106, 3-(3-(4-(benzo[b]thiophen-4-yl)piperazin-1-yl)propyl)-5-methoxy-1H-indole], the IC50 was 662 nM in test [1] (setting [4]) and 543 nM in test [3]. Further, in test [2], the EC50 is 10.4 nM.
Consider `N#Cc1ccc2[nH]cc(CCN3CCN(c4cccc5sccc45)CC3)c2c1` [Compound of example 109, 3-(2-(4-(benzo[b]thiophen-4-yl)piperazin-1-yl)ethyl)-1H-indole-5-carbonitrile], for which the IC50 in test [1] (setting [4]) turned out to be 200 nM; in test [3], 243 nM.
For the compound `Nc1nc2cc(CCN3CCN(c4cccc5sccc45)CC3)ccc2s1` [Compound of example 116, 5-(2-(4-(benzo[b]thiophen-4-yl)piperazin-1-yl)ethyl)benzo[d]thiazol-2-amine], the IC50 in test [3] worked out at 5.97 nM.
The same measure, in the same setting: under `Nc1nc2c(CCN3CCN(c4cccc5sccc45)CC3)cccc2s1` [Compound of example 120, 4-(2-(4-(benzo[b]thiophen-4-yl)piperazin-1-yl)ethyl)benzo[d]thiazol-2-amine] stands 229 nM.
Same read-out and setting: under `c1cc(N2CCN(CCCCc3nnnn3C3CCCCC3)CC2)c2ccsc2c1` [Compound of example 138, 1-(benzo[b]thiophen-4-yl)-4-(4-(1-cyclohexyl-1H-tetrazol-5-yl)butyl)piperazine hydrochloride] stands 9.4 nM.

The values above are taken from patent US10174011B2, “Heterocyclic compounds, process for preparation of the same and use thereof” (SHANGHAI INSTITUTE OF MATERIA MEDICA, CHINESE ACADEMY OF …, priority 2014, dated 2019).
